# Paper PMC7083565, “In vitro metabolism, reaction phenotyping, enzyme kinetics, CYP inhibition and induction potential of ataluren” (Pharmacology Research & Perspectives, 2020)
# Read-outs that look alike come from different tables or passages of the source.
# Columns and labels:
# [1] = Ataluren glucuronidation kinetics, human intestinal microsomes; assay type: in vitro ADME; conditions: for CLint,u,UGT (scaled) / K m / K m, u / V max: HIM; for CLint,u,UGT (scaled): 20.6 mg protein/g tissue; for K m / K m, u / V max: mean ± SE; for K m / K m, u / V max / fraction unbound at 15 min: n = 3; for fraction unbound at 15 min / microsomal CLint: human, pH 7.5, HIM; for fraction unbound at 15 min: pooled human intestinal microsomes incubation mixture, mean ± SD, read-out: fu,inc; for microsomal CLint: pooled human intestinal microsomes, read-out: CLint,u,UGT
# Protocol: Ataluren at 0.5, 2.5, 12.5, 25, 50, 100, 200, and 400 µmol/L, was incubated (n = 3) at 37°C with recombinant human UGT1A9 and with pooled microsomes from human liver, kidney, and intestine (0.025 mg protein/mL, preactivated with alamethicin at 20 µg/mL) in Tris‐HCl buffer (0.1 mol/L, pH 7.5), in the presence of 1 mmol/L EDTA, 5 mmol/L MgCl2, with or without 0.5%, 1%, or 2% BSA. The incubation (100 µL final volume with 0.5% DMSO) was started by adding an equal volume of UDPGA (5 mmol/L) in Tris‐HCl buffer (0.1 mol/L, pH 7.5). After 30 minutes incubation, the incubation mixtures were combined with 0.3 mL of an internal standard solution in acetonitrile with 1% formic acid, followed by membrane plate filtration. The filtrates were used for LC‐MS/MS analysis to quantify the formation of ataluren‐O‐1β‐acyl glucuronide. Detailed LC‐MS/MS conditions are summarized in LC‐MS/MS Analysis section. Ataluren acyl glucuronide formation rate after 30 minutes incubation was calculated using the amount of metabolite formed (pmol) divided by the protein amount in the incubation sample (0.0025 mg) and the incubation time (30 minutes). Ataluren glucuronidation kinetic parameters were determined with and without adjusting BSA binding by nonlinear regression (GraphPad Prism, 5version 5.04, GraphPad Software, Inc.) using Michaelis‐Menten equation which was the best fit compared with other models. The intrinsic clearance was calculated as CLint = Vmax/Km. In order to compare unbound intrinsic clearance by glucuronidation (CLint,u,UGT) in different tissues, CLint,u,UGT was expressed per gram of tissue by correcting the values for the microsomal protein yield, resulting in scaled CLint,u,UGT. Microsomal protein yields of 40.0, 12.8, and 20.6 mg protein/g tissue were used for hepatic, renal, and intestinal data, respectively. ^26
# The high‐throughput membrane ultrafiltration method ^27 was used to determine the fraction unbound in the incubation (n = 3). Incubation mixtures and procedures were essentially the same as the above except that UDPGA (5 mmol/L) was replaced with Tris‐HCl buffer (0.1 mol/L, pH 7.5). After 15 minutes incubation, aliquot was transferred to a Millipore Multiscreen Ultracel‐10 filter plate (10 kDa molecular mass cut off; EMD Millipore). The plate was centrifuged at 37°C and 3710 g. After 30 minutes centrifugation, aliquots of ultrafiltrates and incubation mixtures prior to ultrafiltration were quenched with an internal standard solution in acetonitrile, followed by membrane plate filtration. The filtrates were used for LC‐MS/MS analysis to quantify the concentration of ataluren. The same LC‐MS/MS conditions described above are summarized in LC‐MS/MS Analysis section. The free fraction = Cu/Cm, where Cu is the concentration of ataluren in the ultrafiltrate and Cm is the concentration of ataluren in the incubation system before centrifugation. Unbound Km (Km, u) was recalculated by applying Michaelis‐Menten equation using free ataluren concentrations after correcting BSA binding at each ataluren and BSA concentration level.
# Quantification of ataluren‐O‐1β‐acyl glucuronide formation was conducted on an Accela pump and a PAL autosampler equipped with a TSQ Quantum Ultra mass spectrometer (Thermo Fisher Scientific). A Waters Acquity BEH column (C18, 1.7 µm, 50 × 2.1 mm; Waters Cooperation) was used and maintained at 50°C. The mobile phases were 0.1% formic acid in water (A) and acetonitrile (B). The flow rate was 0.6 mL/min and gradient program was as follows: linear gradient from 0% B to 95% B in 0.5 minutes and hold isocratic at 95% B for 1 minute; linear gradient from 95% B to 0% B in 0.1 minutes and hold isocratic at 0% B for 0.4 minutes. TSQ Quantum Ultra mass spectrometer was equipped with a heated electrospray ionization source operated in negative‐ion mode with a vaporizer temperature of 350°C, capillary temperature of 380°C, and spray voltage of 3 kV. […]
# [2] = Glucuronidation in pooled human intestinal microsomes; assay type: in vitro ADME; conditions: intestinal microsomes 1 mg protein/mL, 10 μmol/L, 60 minutes, n = 1
# Protocol: Ataluren at 10 μmol/L, was incubated (n = 1) with pooled human intestinal, lung, and kidney microsomes (1 mg protein/mL, preactivated with alamethicin) to evaluate if ataluren‐O‐1β‐acyl glucuronide will be formed in these extrahepatic tissues. Incubation mixtures and procedures were essentially the same as the above. The supernatant fractions were analyzed by LC‐MS/MS to quantify the formation of ataluren‐O‐1β‐acyl glucuronide and the loss of ataluren. Detailed LC‐MS/MS conditions are summarized in LC‐MS/MS Analysis section. […] The ataluren acyl glucuronide formation rate after 60 minutes incubation was calculated using the amount of metabolite formed (pmol) divided by the protein amount in the incubation sample ([…]) and the incubation time (60 minutes).
# Quantification of ataluren loss and ataluren‐O‐1β‐acyl glucuronide formation was carried out with an LC‐MS/MS system, which consisted of two Shimadzu LC‐10ADvp pumps, a SPD10‐AVP UV/Vis detector, a Shimadzu SILHTA autosampler, a Shimadzu DGU‐14A degasser, and a Sciex API 4000 QTRAP mass spectrometer equipped with a Turbo Ionspray ionization source that operated in positive ionization mode. […] Ion transitions monitored were at m/z 285 → m/z 123 for ataluren, m/z 461 → m/z 285 for ataluren acyl glucuronide, and m/z 289 → m/z 127 for ataluren‐D4 (internal standard), respectively.
structure (smiles),measurement,setting,value
"O=C(O)c1cccc(-c2noc(-c3ccccc3F)n2)c1 [ataluren, Ataluren]","CLint,u,UGT (scaled)",[1]; 0% BSA,0.974 mL/min/g of tissue
same,K m,[1]; 0% BSA,15.8 ± 3.35 µM
same,"K m, u",[1]; 0% BSA,15.8 ± 3.10 µM
same,V max,[1]; 0% BSA,747 ± 32.7 pmol/min/mg
same,"CLint,u,UGT (scaled)",[1]; 0.5% BSA,3.38 mL/min/g of tissue
same,K m,[1]; 0.5% BSA,43.8 ± 6.88 µM
same,"K m, u",[1]; 0.5% BSA,4.03 ± 0.646 µM
same,V max,[1]; 0.5% BSA,660 ± 28.3 pmol/min/mg
same,"CLint,u,UGT (scaled)",[1]; 1% BSA,3.64 mL/min/g of tissue
same,K m,[1]; 1% BSA,82.4 ± 11.3 µM
same,"K m, u",[1]; 1% BSA,4.02 ± 0.544 µM
same,V max,[1]; 1% BSA,711 ± 31.2 pmol/min/mg
same,"CLint,u,UGT (scaled)",[1]; 2% BSA,3.39 mL/min/g of tissue
same,K m,[1]; 2% BSA,145 ± 22.0 µM
same,"K m, u",[1]; 2% BSA,4.74 ± 0.835 µM
same,V max,[1]; 2% BSA,767 ± 54.6 pmol/min/mg
same,"maximal effect of BSA on CLint,u (increase)","[1]; human intestine microsomes, with vs without BSA",~3.7 fold
same,fraction unbound at 15 min,[1]; 0% BSA,1 ± 0.137
same,fraction unbound at 15 min,[1]; 0.5% BSA,0.1 ± 0.0021
same,fraction unbound at 15 min,[1]; 1% BSA,0.056 ± 0.002
same,fraction unbound at 15 min,[1]; 2% BSA,0.036 ± 0.002
same,microsomal CLint,[1]; 0% BSA,47.3 µL/min/mg
same,microsomal CLint,[1]; 0.5% BSA,164 µL/min/mg
same,microsomal CLint,[1]; 1% BSA,177 µL/min/mg
same,microsomal CLint,[1]; 2% BSA,164 µL/min/mg
same,ataluren loss,[2],34.4%
